A word on the EC50: it is the concentration that produces a half-maximal response.

The target in the experiment is human Somatostatin 4 Receptor (SSTR4) (Homo sapiens (Human), UniProt P31391). Kind of experiment: cAMP assay with human somatostatin 4 receptor (hSSTR4 expressing H4 cells). The class given is cell-based. The conditions noted are these: read-out: SSTR4 agonism EC50.
Sequence of human Somatostatin 4 Receptor (SSTR4) (P31391 whole entry): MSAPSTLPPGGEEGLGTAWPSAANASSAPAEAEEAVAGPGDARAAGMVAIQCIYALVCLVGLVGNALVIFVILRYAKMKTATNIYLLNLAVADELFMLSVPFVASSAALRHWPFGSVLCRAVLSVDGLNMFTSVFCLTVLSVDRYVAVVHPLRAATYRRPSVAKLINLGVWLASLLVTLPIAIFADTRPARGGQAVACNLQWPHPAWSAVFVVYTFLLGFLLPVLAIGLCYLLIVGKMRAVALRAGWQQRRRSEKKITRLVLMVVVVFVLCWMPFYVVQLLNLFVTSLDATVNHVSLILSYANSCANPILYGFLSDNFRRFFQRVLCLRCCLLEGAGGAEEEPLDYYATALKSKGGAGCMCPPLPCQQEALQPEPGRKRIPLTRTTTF
With `Cc1cccn2c(C(C)(C)NC(=O)[C@@H]3CNCCO3)nnc12` [Example 105], the EC50 came out at 596 nM. Next, `Cc1cccn2c(C(C)(C)NC(=O)C3CNCCOC3)nc(C3CC3)c12` (single isomer, unassigned) [Example 140]: 1000 nM. The same measure for `Cc1cccc2c(C(C)(C)NC(=O)C3CNCCOC3)nn(C)c12` (racemic) [Example 84]: 4.5 nM; for `Cc1cccn2c(C(C)(C)NC(=O)C3CNCCCO3)nc(C)c12` (racemic) [Example 147]: 185 nM.

Regarding `Cn1nc(C(C)(C)NC(=O)C2CCNCCO2)c2ccccc21` (single isomer, unassigned) [Example 28], the EC50 amounted to 48.4 nM.

As for `Cn1nc(C(C)(C)NC(=O)C2CNCCOC2)c2cccc(Cl)c21` (racemic) [Example 80], the EC50 came out at 4.8 nM. Next, `Cc1cccn2c(C(C)(CC(C)C)NC(=O)[C@@H]3CNCCO3)ncc12` (single isomer, unassigned) [Example 113]: 380 nM.

Take `CC(C)(COc1nccc2ccccc12)NC(=O)C1CNCCOC1` (single isomer, unassigned) [Example 18]: the EC50 is 209 nM. The same measure for `Cc1cccn2c(C(C)(C)NC(=O)C3CCNCCO3)ncc12` (single isomer, unassigned) [Example 142]: 90.5 nM; for `Cc1nc(C(C)(C)NC(=O)C2CNCCOC2)n2cccc(F)c12` (single isomer, unassigned) [Example 121]: 11.1 nM.

On to `CC(C)(NC(=O)C1CNCCOC1)c1cccc2ccccc12` (centres unmarked) [Example 1], for which the concentration for a half-maximal effect (EC50) amounted to 4.7 nM.

As to `Cc1cccn2c(C(C)(NC(=O)[C@@H]3CNCCO3)C3CC3)ncc12` (single isomer, unassigned) [Example 110], the EC50 is 1000 nM. Next, `Cc1cccc2c(C(C)(C)NC(=O)C3CNCCOC3)n[nH]c12` (single isomer, unassigned) [Example 59]: 1070 nM; `Cc1cccn2c(C(C)(C)NC(=O)C3CNCCCO3)ncc12` (racemic) [Example 144]: 71.8 nM. Next, `Cc1ncc(C(C)(C)NC(=O)C2CNCCOC2)c2ccccc12` (single isomer, unassigned) [Example 42]: 415 nM; `CC(C)(NC(=O)[C@@H]1CNCCO1)c1nc(C2CC2)c2c(F)cccn12` [Example 103]: 60.7 nM; `Cc1nnc(C(C)(C)NC(=O)[C@@H]2CNCCO2)c2ccccc12` [Example 36]: 25.4 nM.

With `Cc1ncc(C(C)(C)NC(=O)C2CNCCOC2)c2ccccc12` (racemic) [Example 40], the EC50 was 0.8 nM.

With `CC(C)(NC(=O)C1CNCCOC1)c1noc2c(F)cccc12` (racemic) [Example 62], the EC50 worked out at 65.7 nM.

For the compound `CC(C)(NC(=O)[C@@H]1CNCCO1)c1nc2ccc(Cl)cc2[nH]1` [Example 14], the EC50 amounted to 796 nM. The same measure for `Cc1cccn2c(C(C)(C)NC(=O)C3CNCCOC3)nc(C3CC3)c12` (single isomer, unassigned) [Example 139]: 22.2 nM; for `Cc1cccn2c(C(C)(C)NC(=O)C3CCNCCO3)ncc12` (single isomer, unassigned) [Example 143]: 77.6 nM.

As to `Cc1cccc2c(C(C)(C)NC(=O)C3CNCCOC3)n[nH]c12` (racemic) [Example 58], the EC50 came out at 4.1 nM. Next, `Cn1nc(C(C)(C)NC(=O)C2CNCCOC2)c2cccc(F)c21` (single isomer, unassigned) [Example 78]: 430 nM. Next, `CC(C)(NC(=O)C1CNCCCO1)c1noc2c(F)cccc12` (single isomer, unassigned) [Example 67]: 23000 nM; `Cc1cccn2c(C(C)(C)NC(=O)C3CNCCOC3)nc(C3CC3)c12` (racemic) [Example 138]: 59.7 nM; `Cc1cccc2c(C(C)(C)NC(=O)C3CNCCOC3)cnn12` (racemic) [Example 33]: 7.7 nM. Next, `Cc1cccn2c(C3(NC(=O)[C@@H]4CNCCO4)CC3)ncc12` [Example 97]: 40.8 nM. Regarding `CC(C)(COc1nccc2ccccc12)NC(=O)C1CNCCOC1` (racemic) [Example 16], the EC50 was found to be 393 nM. For `Cc1cccn2c(C(C)(C)NC(=O)C3CNCCOC3)nc(C)c12` (single isomer, unassigned) [Example 129], the concentration for a half-maximal effect (EC50) worked out at 5.3 nM.

Regarding `Cc1cccn2c(C3(NC(=O)C4CNCCOC4)CCC3)ncc12` (single isomer, unassigned) [Example 131], the EC50 was found to be 19 nM. On to `Cc1cc(F)cn2c(C(C)(C)NC(=O)[C@@H]3CNCCO3)ncc12` [Example 100], for which the EC50 is 103 nM. Next, `CC(C)(NC(=O)[C@H]1CNCCO1)c1cccc2ncccc12` [Example 8]: 258 nM; `Cc1cccn2c(C3(NC(=O)[C@@H]4CNCCO4)CCOC3)ncc12` (single isomer, unassigned) [Example 115]: 294 nM. `Cc1nc(C(C)(C)NC(=O)C2CNCCOC2)c2cccc(C)c2n1` (racemic) [Example 133]: the EC50 is 55.3 nM. The same measure for `Cc1cccc2c(C(C)(C)NC(=O)C3CNCCOC3)noc12` (racemic) [Example 54]: 8.2 nM. The same measure for `CC(C)(NC(=O)C1CNCCCO1)c1noc2c(F)cccc12` (racemic) [Example 65]: 998 nM; for `Cc1ncc(C(C)(C)NC(=O)[C@H]2CNCCO2)c2ccccc12` [Example 39]: 180 nM; for `CC(C)(NC(=O)C1CCNCCO1)c1noc2c(F)cccc12` (single isomer, unassigned) [Example 69]: 434 nM. Turning to `Cc1cccn2c(C3(NC(=O)C4CNCCOC4)CCC3)ncc12` (single isomer, unassigned) [Example 132], the 50% effective concentration (EC50) was 10000 nM. The same measure for `C[C@H](NC(=O)C1CNCCOC1)c1cccc2ccccc12` (some centres unmarked) [Example 3]: 18 nM; for `Cc1cc2ccccc2c(C(C)(C)NC(=O)C2CNCCCO2)n1` (racemic) [Example 47]: 25.9 nM; for `Cc1cc2ccccc2c(C(C)(C)NC(=O)C2CCNCCO2)n1` (single isomer, unassigned) [Example 52]: 48.9 nM. Turning to `Cc1cccc2c(C(C)(C)NC(=O)C3CNCCOC3)nn(C)c12` (single isomer, unassigned) [Example 86], the EC50 was 1000 nM. The same measure for `CC(C)(NC(=O)C1CNCCOC1)c1noc2c(F)cccc12` (single isomer, unassigned) [Example 64]: 1860 nM; for `Cc1cccn2c(C(C)(C)NC(=O)C3CNCCOC3)ccc12` (single isomer, unassigned) [Example 137]: 1430 nM; for `Cc1nc(C(C)(C)NC(=O)C2CNCCOC2)c2cccc(C)c2n1` (single isomer, unassigned) [Example 134]: 98.1 nM. The same measure for `CC(C)(COc1cnccc1C(F)(F)F)NC(=O)[C@@H]1CNCCO1` [Example 9]: 190 nM. `Cc1cccn2c(C(C)(C)NC(=O)[C@@H]3CNCCO3)cnc12` [Example 108]: the half-maximal effective concentration (EC50) is 58.1 nM.

In the case of `Cc1cccc2c(C(C)(C)NC(=O)C3CNCCOC3)cnn12` (single isomer, unassigned) [Example 35], the EC50 worked out at 2860 nM. `CC(C)(NC(=O)C1CNCCOC1)c1n[nH]c2c(F)cccc12` (single isomer, unassigned) [Example 90]: the EC50 came to 670 nM. The same measure for `CC(C)(NC(=O)[C@@H]1CNCCO1)c1ccnc2ccccc12` [Example 11]: 26.3 nM; for `Cc1cccn2c(C3(NC(=O)[C@@H]4CNCCO4)CCC3)ncc12` [Example 102]: 31 nM; for `Cn1nc(C(C)(C)NC(=O)C2CNCCCO2)c2ccccc21` (single isomer, unassigned) [Example 25]: 1000 nM. Take `CC(C)(NC(=O)C1CNCCOC1)c1ncc2c(Cl)cccn12` (single isomer, unassigned) [Example 119]: the EC50 stood at 73.9 nM.

Turning to `Cc1cc2cccnc2c(C(C)(C)NC(=O)C2CNCCOC2)n1` (centres unmarked) [Example 2], the concentration for a half-maximal effect (EC50) came to 90.1 nM.

As to `CC(C)(NC(=O)C1CNCCOC1)c1n[nH]c2c(Cl)cccc12` (racemic) [Example 92], the 50% effective concentration (EC50) was determined as 2.5 nM.

Consider `Cc1cccn2c(C3(NC(=O)[C@@H]4CNCCO4)CCOC3)ncc12` (single isomer, unassigned) [Example 114], for which the EC50 was 1000 nM.

In the case of `Cc1cccn2c(C(C)(C)NC(=O)C3CNCCCO3)nc(C)c12` (single isomer, unassigned) [Example 149], the EC50 amounted to 1000 nM. Next, `Cc1ccccc1OCC(C)(C)NC(=O)[C@@H]1CNCCO1` [Example 15]: 244 nM. Next, `Cn1nc(C(C)(C)NC(=O)[C@@H]2CNCCO2)c2cccc(C(F)(F)F)c21` [Example 31]: 52.7 nM. The same measure for `CC(C)(NC(=O)C1CNCCOC1)c1noc2c(F)cccc12` (single isomer, unassigned) [Example 63]: 42 nM; for `Cn1nc(C(C)(C)NC(=O)[C@@H]2CNCCO2)c2c(F)cccc21` [Example 29]: 21.6 nM. Consider `CC(C)(NC(=O)[C@@H]1CNCCO1)c1n[nH]c2c(F)cccc12` [Example 87], for which the 50% effective concentration (EC50) came out at 13.4 nM. The same measure for `Cc1cccn2c(C(C)(C)NC(=O)[C@@H]3CNCCO3)nc(C3CC3)c12` [Example 104]: 73.5 nM; for `Cc1cccc2c(C(C)(C)NC(=O)[C@@H]3CNCCO3)cnn12` [Example 32]: 10.9 nM; for `CC(C)(NC(=O)C1CCNCCO1)c1noc2c(F)cccc12` (single isomer, unassigned) [Example 70]: 544 nM. The same measure for `Cc1cc2ccccc2c(C(C)(C)NC(=O)C2CNCCOC2)n1` (single isomer, unassigned) [Example 45]: 795 nM; for `Cc1cccn2c(C(C)(CC(C)C)NC(=O)[C@@H]3CNCCO3)ncc12` (single isomer, unassigned) [Example 112]: 5500 nM. The same measure for `Cc1nc(C(C)(C)NC(=O)C2CNCCOC2)n2cccc(F)c12` (single isomer, unassigned) [Example 122]: 1000 nM. As to `Cc1cccn2c(C(C)(C)NC(=O)C3CNCCOC3)nc(C)c12` (single isomer, unassigned) [Example 130], the EC50 was determined as 466 nM.

The values above are taken from patent publication US10071974B2, “Morpholine and 1,4-oxazepane amides as somatostatin receptor subtype 4 (SSTR4) agonists” (Boehringer Ingelheim International GmbH, priority 2014, dated 2018).
